Laboratory results published in US8394783B2, “Polysaccharide gel formulation having multi-stage bioactive agent delivery” (Allergan, Inc., priority 2007, dated 2013).

Assays:
Hyaluronidase [1] = test: Enzymatic degradation study (SEC-MALS soluble HA assay); type: biochemical
From the text: The HA filling gels prepared in Examples 1 and 2, were further evaluated for resistance to enzymatic degradation by using a SEC-MALS (Size Exclusion Multi-Angle Light Scattering) based soluble HA assay. This assay was applied to quantify degradation by evaluating the soluble HA content in each sample (defined as the portion of the gel that can pass through a 0.2-1.0 μm filter). The difference in the soluble HA content, between an enzymatically degraded sample and a control sample was used to quantify the extent of degradation for each HA formulation.
The SEC-MALS tests were performed using an Agilent size exclusion chromatography system equipped with Wyatt light scattering and refractive index units. Hyaluronidase (0.1-10 mg) was added to each HA formulation, incubated for 10-250 mins at 37° C. followed by addition of 0.1 ml of a 0.8 M potassium tetraborate solution and heating at 100° C. for 10 mins. The samples were diluted in PBS, filtered through a 0.2-1.0 μm filter and injected into the SEC-MALS system. The process was repeated for each HA formulation, omitting the enzyme addition, to prepare a control sample. The soluble HA content of the enzymatically degraded sample, the control sample as well as the difference between the two is summarized in FIG. 3.

Hyaluronidase [2] = test: Enzymatic degradation study (Morgan-Elson colorimetric assay); type: biochemical; details: generally an order of magnitude less TA gives the same inhibition as CSA
Procedure: The HA filling gels prepared in Examples 1 and 2, were evaluated for resistance to enzymatic degradation using the Morgan-Elson colorimetric assay. This assay was applied to estimate the extend of enzymatic degradation by measuring changes in the molecular weight of the HA chains.
Hyaluronidase (0.1-10 mg) was added to each HA formulation, incubated for 10-250 mins at 37° C. followed by addition of 0.1 mL of a 0.8 M potassium tetraborate solution and heating at 100° C. for 10 min. The samples were supplemented with 3 mL of a 10% (wt) p-dimethylaminobenzaldehyde solution in acetic acid and incubated at 37° C. for 10-120 mins. The process was repeated for each HA formulation, omitting the enzyme addition, to prepare a control sample. The change in the optical density (OD) at 585 nm between the enzymatically degraded sample and the control sample was used to quantify the extent of degradation for each formulation.

O=C(OC[C@H]1O[C@@H](OC(=O)c2cc(O)c(O)c(OC(=O)c3cc(O)c(O)c(O)c3)c2)[C@H](OC(=O)c2cc(O)c(O)c(OC(=O)c3cc(O)c(O)c(O)c3)c2)[C@@H](OC(=O)c2cc(O)c(O)c(OC(=O)c3cc(O)c(O)c(O)c3)c2)[C@@H]1OC(=O)c1cc(O)c(O)c(OC(=O)c2cc(O)c(O)c(O)c2)c1)c1cc(O)c(O)c(OC(=O)c2cc(O)c(O)c(O)c2)c1 [TA, tannic acid]
inhibitory activity of TA compared with CSA (Hyaluronidase [1]): significantly higher than that of CSA | inhibitory activity of TA compared with CSA (Hyaluronidase [2]): higher inhibitory activity than CSA
